Experimental data published in patent US6903104B2, “Indol-3-YL-2-oxoacetamide compounds and methods of use thereof” (National Health Research Institutes, priority 2001, dated 2005).

Columns and labels:
[1] = tested on: colorectal DLD1 cancer cells; assay: In vitro cytotoxicity MTS assay, colorectal DLD1; format: cell-based, human; settings: 72 hours
Procedure: (§1) A panel of human cancer cells, gastric NUGC3 and HR, nasopharyngeal HONE1, hepatocellular HEP G2 and HA-22T, colorectal DLD1, lung A549, prostate PC3, breast MCF7 and its adriamycin-resistant MCF7/ADR subline, uterus MES-SA and its adriamycin-resistant MES-SA/Dx5 subline, is purchased from Food Industry Research and Development Institute, Hsinchu, Taiwan R.O.C. or American Type Culture Collection, Manassas, Va. U.S.A., are used in in vitro cytotoxicity assays. The human cells are seeded at a cell density of 3000 or 4500 cells/100 μl/well in 96-well flat-bottom plates and incubated for 24 hours at 37° C. in a 5% CO2 incubator. The testing compounds are dissolved in dimethyl sulfoxide (DMSO) and further diluted into the culture medium for treatments of human cancer cells in vitro. The drug-containing media has a final DMSO concentration of ≦0.3%. The compounds of this invention are prepared in culture media for testing at a range of concentrations from 10, 1, 0.1, 0.01 to 0.001 μM. Each compound solution is (200 μl/well in duplicate) in the cell plates and is treated for 72 hours at 37° C., 5% CO2 in an incubator. Actinomycin D at 5 μM and 0.3% DMSO are used as the positive and vehicle controls, respectively. A colorimetric assay using 3-(4,5-dimethylthiazol-2-yl)-5-(3-carboxymethoxyphenyl)-2-(4-sulfophenyl)-2H-tetrazolium (MTS) and phenazine methosulfate (PMS) is used to determine the potency of the compounds. This assay measures cell viability based on the cellular activity in conversion of a tetrazolium salt into a colored soluble formazan product. The optical density (OD) values are measured at 490 nm with a 1420 multilabel counter VICTOR® from Wallac, Turku, Finland. All of the measured values are subtracted with that of the blank control wells without cells before further calculations. The efficacy data are expressed as a percentage normalized to the vehicle controls as calculated in the following formulae. Inhibitory potency (% of vehicle control)=[(OD490compound−OD490blank)/(OD490vehicle−OD490blank)]×100%. The concentration (IC50) of a test compound that inhibits 50% of the cellular activity is determined.

[2] = tested on: hepatocellular HA-22T cancer cells; assay: In vitro cytotoxicity MTS assay, hepatocellular HA-22T; format: cell-based, human; settings: 72 hours
Procedure: as §1

[3] = tested on: hepatocellular HEP G2 cancer cells; assay: In vitro cytotoxicity MTS assay, hepatocellular HEP G2; format: cell-based, human; settings: 72 hours
Procedure: as §1

[4] = tested on: nasopharyngeal HONE1 cancer cells; assay: In vitro cytotoxicity MTS assay, nasopharyngeal HONE1; format: cell-based, human; settings: 72 hours
Procedure: as §1

gastric HR cancer cells = assay: In vitro cytotoxicity MTS assay, gastric HR; format: cell-based, human; settings: 72 hours
Procedure: as §1

[5] = tested on: gastric NUGC3 cancer cells; assay: In vitro cytotoxicity MTS assay, gastric NUGC3; format: cell-based, human; settings: 72 hours
Procedure: as §1

breast MCF7 cancer cells = assay: In vitro cytotoxicity MTS assay, breast MCF7; format: cell-based, human; settings: 72 hours
Procedure: as §1

[6] = tested on: adriamycin-resistant MCF7/ADR subline; assay: In vitro cytotoxicity MTS assay, adriamycin-resistant MCF7/ADR; format: cell-based, human; settings: 72 hours
Procedure: as §1

[7] = tested on: murine leukemic P388 cells; assay: In vivo anticancer activity, murine leukemic P388 model; design: species or system DBA/2J mice; settings: for increase of life span: P.O., daily, 4×
Procedure: The in vivo anticancer activities of the compounds are evaluated by the following murine leukemic P388 model. Inbred female DBA/2J mice of 4-5 week-old were purchased from the Charles River Laboratories Inc., Wilmington, Mass., USA and the National Laboratory Animals Breeding and Research Center, Taipei, Taiwan, ROC. Murine leukemic P388 cells are purchased from the Japanese Collection of Research Bioresources, Japan. P388 cells are cultured and propagated in RPMI1640 medium supplemented with 50 μM 2-mercaptoethanol and 10% fetal bovine serum. Mice at the age of 6 weeks were grouped as the treatment, negative control and positive control groups at 7 to 8 mice per group. All mice are intravenously inoculated with the P388 cells at one million per mouse one day before the treatments initiated. Compounds of this invention are dissolved in dimethyl sulfoxide (DMSO) and then diluted in 0.5% carboxymethyl cellulose with the final concentration of DMSO less than 0.5%. Different treatment groups are orally given (P.O.), respectively, with compounds of different doses for a pharmacological dose-response relationship. Mice of the negative control group are treated with the dosing vehicle, 0.5% carboxymethyl cellulose. Doxorubicin of the maximal tolerated dose, 10 mg/kg, is given intravenously as an experimental positive control. The cancer cell-inoculated animals are monitored twice daily. The time on which 50% of the P388-inoculated mice is still surviving is defined as the medium survival time and is used to calculate the percentage (normalized to the medium survival time of the control group) of increased in life span after treatment, which is then served as the index of treatment response.

| SMILES | IC50 [1] [nM] | IC50 [2] [nM] | IC50 [3] [nM] | IC50 [4] [nM] | IC50 (gastric HR cancer cells) [nM] | IC50 [5] [nM] | IC50 (breast MCF7 cancer cells) [nM] | IC50 [6] [nM] | increase of life span ([7]; 25 mg/kg, P388-inoculated mice) [%] | increase of life span ([7]; 50 mg/kg, P388-inoculated mice) [%] | increase of life span ([7]; 100 mg/kg, P388-inoculated mice) [%] | increase of life span ([7]; 150 mg/kg, P388-inoculated mice) [%] | increase of life span ([7]; 200 mg/kg, P388-inoculated mice) [%] | increase of life span ([7]; 400 mg/kg, P388-inoculated mice) [%] | activity in the increase of life span (dose-response) ([7]; oral, P388-inoculated mice) | increased of life span ([7]; maximal tolerated dose, 10 mg/kg, intravenously, mean±sd) [%] |
| --- | --- | --- | --- | --- | --- | --- | --- | --- | --- | --- | --- | --- | --- | --- | --- | --- |
| N#Cc1ccc(Cn2cc(C(=O)C(=O)Nc3cc(-c4ccc(Cl)cc4)no3)c3ccccc32)cc1 [Compound 30] | 926 | 558 | 953 | 332 | 739 | 639 | 920 | 847 | – | – | – | – | – | – | – | – |
| N#Cc1ccc(Cn2cc(C(=O)C(=O)NCCCCCCOc3ccc(Cl)cc3)c3ccccc32)cc1 [Compound 43] | 534 | 200 | 713 | 31 | 291 | 134 | 856 | 412 | – | – | – | – | – | – | – | – |
| O=C(Nc1ccc2ncccc2c1)C(=O)c1cn(Cc2ccsc2)c2ccccc12 [Compound 48] | 1430 | 303 | 4130 | 217 | 552 | 206 | 915 | 371 | 25 | 60 | 25 | 68 ± 25 | 63 | 229 | dose-dependent activity | – |
| COc1ccc(NC(=O)C(=O)c2cn(Cc3ccsc3)c3ccccc23)cc1 [Compound 50] | 734 | 46 | 1320 | 38 | 128 | 37 | 171 | 406 | – | – | – | – | – | – | – | – |
| Cc1cc(Cn2cc(C(=O)C(=O)Nc3ccc(Br)cc3)c3ccccc32)on1 [Compound 62] | 651 | 148 | 6810 | 42 | 300 | 137 | 872 | 509 | – | – | – | – | – | – | – | – |
| COc1cccc2c1C(=O)c1c(O)c3c(c(O)c1C2=O)C[C@@](O)(C(=O)CO)C[C@@H]3O[C@H]1C[C@H](N)[C@H](O)[C@H](C)O1 [doxorubicin, reference compound] | – | – | – | – | – | – | – | – | – | – | – | – | – | – | – | 119±18 |
